Source: article PMC9652379, “Safety evaluations of a synthetic antimicrobial peptide administered intravenously in rats and dogs” (Scientific Reports, 2022)
Positions of bridges follow the written chain, without caps; N, C: chain ends. Non-standard residues stand in square brackets, D forms with d. Residues, ends and D or L forms follow the SMILES beside them. Chains are numbered I, II in the order given. βAla = NCCC(=O)O

Columns and labels:
mouse = settings: cited from earlier work
beagle dogs [1] = assay: Four-week toxicity study in dogs: necroscopy, organ weights, microscopic findings; format: in vivo, dog; settings: for Kidney: degeneration/regeneration, tubules, minimal (incidence): 4-week dosing; for Kidney: regeneration, tubules, minimal (incidence): 4-week recovery period
Description: These higher weights were correlated microscopically with minimal tubule degeneration/regeneration and minimal interstitial cell infiltrates. There were no other SET-M33-related organ weight changes (Table 6). There were no organ weight changes at recovery sacrifice, or macroscopic findings at terminal and recovery necroscopy. […] The kidney findings included minimal tubule degeneration/regeneration at 1.5 mg/kg/day and 4 mg/kg/day in males, and at 4.0 mg/kg/day in females, and minimal interstitial cell infiltrate in both sexes at a dose of 4.0 mg/kg/day. Degeneration featured vacuolation, cell sloughing and/or tinctorial change, and regeneration was characterized by increased basophilia, nuclear crowding and/or increased mitoses of cortical tubule epithelial cells. Regenerative changes were typically more pronounced than degenerative changes. SET-M33-related microscopic findings in kidney were correlated with higher kidney weights (absolute and relative to body and brain weight) and elevated BUN and creatinine in both sexes at 4.0 mg/kg/day. […] After the 4-week recovery period, kidney interstitial infiltrates cleared completely and tubule degeneration/regeneration resolved almost completely. At the infusion sites, there was complete recovery from vascular/perivascular inflammation and tunica intima hypertrophy/hyperplasia with partial recovery from vascular thrombi and hypertrophy/hyperplasia of the tunica media. Minimal regeneration of cortical tubule epithelial cells, observed in the kidneys of 1 female at a dose of 4.0 mg/kg/day, was considered to be due to a repair process, and a slight thrombus observed at the infusion site (saphenous vein) of another female was also in line with ongoing repair.
Complete macroscopic examination was performed on all animals, including examination of the external surface and all orifices; the external surfaces of the brain and spinal cord; the organs and tissues of the cranial, thoracic, abdominal and pelvic cavities and neck; and the rest of the carcass for macroscopic morphological abnormalities. Necropsy was performed on up to 3 animals/sex/group after treatment for 4 weeks and on 2 animals/sex/group after a 4-week treatment-free recovery period. Organs and tissues were weighed, preserved and examined microscopically. Prior to weighing, organs were carefully dissected and properly trimmed to remove adipose and other contiguous tissue in a uniform manner. Organs were weighed as soon as possible after dissection in order to avoid drying. Paired organs were weighed together. Eyes, optic nerve and testes were initially placed in Modified Davidson’s solution and then kept in 10% neutral buffered formalin (NBF). Lungs and urinary bladder were infused with 10% NBF prior to immersion in a larger volume of the same fixative. All other tissues were preserved in 10% NBF.

beagle dogs [2] = assay: Four-week toxicity study with 4-week recovery in dogs: survival, ECG, NOAEL; format: in vivo, dog
Description: Beagle dogs (5/sex/group) were dosed by intravenous infusion once daily for 1 h with 0 (0.9% sodium chloride for injection), 0.5, 1.5 or 4.0 mg/kg/day SET-M33 for four consecutive weeks. The doses were selected in the dog DRF study (above). The dose of 4 mg/kg/day was selected as the highest dose without macroscopic side effects in the DRF study, and was used to evaluate renal toxicity and its reversibility. The dose of 0.5 mg/kg/day was selected as the lowest dose, about one order of magnitude less than the highest dose. The dose of 1.5 mg/kg/day was selected as an approximately median mid-dose. On completion of 4 weeks of infusion, three animals/sex/group were euthanized and necropsied and the remaining two animals/sex/group were held for a 4-week drug free recovery period after which they were euthanized and necropsied. Blood samples were obtained from all animals on days 1 and 28 for toxicokinetic analysis.
Animals were observed daily for mortality and signs of severe toxic or pharmacological effects. […] Blood obtained via jugular venepuncture from anaesthetized dogs was used to analyse blood, coagulation and clinical chemistry parameters for 5 animals/sex/group pre-test and at termination of dosing and from 2 animals/sex/group at the end of recovery.

rats = assay: Respiratory function in rats (whole body plethysmography); format: in vivo, rat
Description: The possible side-effects of SET-M33 on respiratory function were evaluated after administration of the peptide as a single intravenous bolus at doses of 5, 9 and 15 mg/kg with vehicle (eight animals/group). Respiratory rate, tidal volume and minute volume were assessed. As in the case of neurological toxicity and the 4-week toxicity study, again the dose levels were selected on the basis DRF (above). Baclofen, a muscle relaxer and antispasmodic used to treat muscle pain, spasms and stiffness in people with multiple sclerosis or spinal cord injury or disease, was used as positive control. It was administered as a single intravenous injection at a dose of 15 mg/kg.
Whole body, bias flow plethysmography equipment was used[51]. Respiratory parameters (respiratory rate, tidal volume and minute volume) were derived from the changes in pressure associated with the warming and humidification of the air breathed in by the animal. This was monitored by specific probes located in the plethysmograph chambers. Bias flow (room air) was set at approximately 2.5 L/min. On a day prior to the first day of dosing, all animals were habituated to the plethysmographs for approximately 2 h. The study was run over 4 days and 10 animals (two from each group) were examined each day. On the day of dosing, the animals were placed in the plethysmographs for pre-dose recording (session 1) of respiratory parameters for 60 min. Groups of 8 rats were then removed from the chambers and dosed by intravenous bolus injection with vehicle, SET-M33 or positive control. Immediately after dosing, the rats were placed in the whole body plethysmographs, where they could move about freely, to continuously record respiratory parameters for 4 h post-dose (undisturbed recording). Immediately after the last post-dose recording, the animals were killed humanely by a rising concentration of carbon dioxide. Death was confirmed by dislocation of the neck. Respiratory parameters were reported at the following time points: 0, 30, 60, 90, 120, 150, 180, 210 and 240 min. Time 0 coincided with the mean value of the last 20 min of data recorded in the 60-min pre-dose period. All other time points were the mean of 10-min recordings (an average of every 10 breaths) around each time point. Each post-dose time point was analysed separately by analysis of covariance. Factors in the model were group and day of data collection, with pre-dose values as covariate.

CC[C@H](C)[C@H](NC(=O)[C@H](CCCCN)NC(=O)[C@@H](N)CCCCN)C(=O)N[C@@H](CCCNC(=N)N)C(=O)N[C@H](C(=O)N[C@@H](CCCNC(=N)N)C(=O)N[C@@H](CC(C)C)C(=O)N[C@@H](CO)C(=O)N[C@@H](C)C(=O)NCCCC[C@H](NC(=O)[C@H](C)NC(=O)[C@H](CO)NC(=O)[C@H](CC(C)C)NC(=O)[C@H](CCCNC(=N)N)NC(=O)[C@@H](NC(=O)[C@H](CCCNC(=N)N)NC(=O)[C@@H](NC(=O)[C@H](CCCCN)NC(=O)[C@@H](N)CCCCN)[C@@H](C)CC)C(C)C)C(=O)NCCCC[C@H](NC(=O)[C@H](CCCCNC(=O)[C@H](C)NC(=O)[C@H](CO)NC(=O)[C@H](CC(C)C)NC(=O)[C@H](CCCNC(=N)N)NC(=O)[C@@H](NC(=O)[C@H](CCCNC(=N)N)NC(=O)[C@@H](NC(=O)[C@H](CCCCN)NC(=O)[C@@H](N)CCCCN)[C@@H](C)CC)C(C)C)NC(=O)[C@H](C)NC(=O)[C@H](CO)NC(=O)[C@H](CC(C)C)NC(=O)[C@H](CCCNC(=N)N)NC(=O)[C@@H](NC(=O)[C@H](CCCNC(=N)N)NC(=O)[C@@H](NC(=O)[C@H](CCCCN)NC(=O)[C@@H](N)CCCCN)[C@@H](C)CC)C(C)C)C(=O)NCCC(=O)O)C(C)C [SET-M33] (I: H-KKIRVRLSAKK[βAla]-OH / II: H-KKIRVRLSAK / III: H-KKIRVRLSA / IV: H-KKIRVRLSA; amide I:10-IV:C, I:11-II:C, II:10-III:C (inferred); N-terminus and C-terminus assumed)
efficacy dose (mouse): 5 mg/kg | Infusion site (combined incidence, four sites): haemorrhage, vascular/perivascular, minimal (beagle dogs [1]; dog, in vivo, 0.5 mg/kg/day): 1 | Infusion site (combined incidence, four sites): haemorrhage, vascular/perivascular, moderate (beagle dogs [1]; dog, in vivo, 0.5 mg/kg/day): 0 | Infusion site (combined incidence, four sites): haemorrhage, vascular/perivascular, slight (beagle dogs [1]; dog, in vivo, 0.5 mg/kg/day): 1 | Infusion site (combined incidence, four sites): haemorrhage, vascular/perivascular, total (beagle dogs [1]; dog, in vivo, 0.5 mg/kg/day): 2 | Infusion site (combined incidence, four sites): hypertrophy/hyperplasia, tunica intima, minimal (beagle dogs [1]; dog, in vivo, 0.5 mg/kg/day): 0 | Infusion site (combined incidence, four sites): hypertrophy/hyperplasia, tunica media, minimal (beagle dogs [1]; dog, in vivo, 0.5 mg/kg/day): 0 | Infusion site (combined incidence, four sites): inflammation, vascular/perivascular, moderate (beagle dogs [1]; dog, in vivo, 0.5 mg/kg/day): 0 | Infusion site (combined incidence, four sites): thrombus, blood vessels, high (beagle dogs [1]; dog, in vivo, 0.5 mg/kg/day): 0 | Infusion site (combined incidence, four sites): thrombus, blood vessels, moderate (beagle dogs [1]; dog, in vivo, 0.5 mg/kg/day): 0 | Kidney: infiltrate, interstitium, minimal (incidence) (beagle dogs [1]; dog, in vivo, 0.5 mg/kg/day): 0 | Infusion site (combined incidence, four sites): haemorrhage, vascular/perivascular, slight (beagle dogs [1]; dog, in vivo, 1.5 mg/kg/day): 0 | Infusion site (combined incidence, four sites): hypertrophy/hyperplasia, tunica intima, minimal (beagle dogs [1]; dog, in vivo, 1.5 mg/kg/day): 0 | Infusion site (combined incidence, four sites): hypertrophy/hyperplasia, tunica media, minimal (beagle dogs [1]; dog, in vivo, 1.5 mg/kg/day): 0 | Infusion site (combined incidence, four sites): inflammation, vascular/perivascular, moderate (beagle dogs [1]; dog, in vivo, 1.5 mg/kg/day): 0 | Infusion site (combined incidence, four sites): thrombus, blood vessels, high (beagle dogs [1]; dog, in vivo, 1.5 mg/kg/day): 0 | Infusion site (combined incidence, four sites): thrombus, blood vessels, minimal (beagle dogs [1]; dog, in vivo, 1.5 mg/kg/day): 0 | Infusion site (combined incidence, four sites): thrombus, blood vessels, slight (beagle dogs [1]; dog, in vivo, 1.5 mg/kg/day): 0 | Infusion site (combined incidence, four sites): haemorrhage, vascular/perivascular, moderate (beagle dogs [1]; dog, in vivo, 4 mg/kg/day): 0 | Infusion site (combined incidence, four sites): hypertrophy/hyperplasia, tunica intima, minimal (beagle dogs [1]; dog, in vivo, 4 mg/kg/day): 0 | Infusion site (combined incidence, four sites): hypertrophy/hyperplasia, tunica intima, slight (beagle dogs [1]; dog, in vivo, 4 mg/kg/day): 0 | Infusion site (combined incidence, four sites): hypertrophy/hyperplasia, tunica intima, total (beagle dogs [1]; dog, in vivo, 4 mg/kg/day): 0 | Infusion site (combined incidence, four sites): thrombus, blood vessels, minimal (beagle dogs [1]; dog, in vivo, 4 mg/kg/day): 0 | Infusion site (combined incidence, four sites): thrombus, blood vessels, moderate (beagle dogs [1]; dog, in vivo, 4 mg/kg/day): 5 | Kidney: degeneration/regeneration, tubules, minimal (incidence) (beagle dogs [1]; female dogs, 0.5 mg/kg/day): 0 | Kidney: regeneration, tubules, minimal (incidence) (beagle dogs [1]; female dogs, 0.5 mg/kg/day): 0 | Kidney: degeneration/regeneration, tubules, minimal (incidence) (beagle dogs [1]; female dogs, 1.5 mg/kg/day): 0 | Kidney: regeneration, tubules, minimal (incidence) (beagle dogs [1]; female dogs, 1.5 mg/kg/day): 0 | Kidney: degeneration/regeneration, tubules, minimal (incidence) (beagle dogs [1]; female dogs, 4.0 mg/kg/day): 2 | Kidney: regeneration, tubules, minimal (incidence) (beagle dogs [1]; female dogs, 4.0 mg/kg/day): 1 | Kidney: degeneration/regeneration, tubules, minimal (incidence) (beagle dogs [1]; male dogs, 0.5 mg/kg/day): 2 | Kidney: regeneration, tubules, minimal (incidence) (beagle dogs [1]; male dogs, 0.5 mg/kg/day): 0 | Kidney: degeneration/regeneration, tubules, minimal (incidence) (beagle dogs [1]; male dogs, 1.5 mg/kg/day): 3 | Kidney: regeneration, tubules, minimal (incidence) (beagle dogs [1]; male dogs, 1.5 mg/kg/day): 0 | Kidney: degeneration/regeneration, tubules, minimal (incidence) (beagle dogs [1]; male dogs, 4.0 mg/kg/day): 0 | Kidney: regeneration, tubules, minimal (incidence) (beagle dogs [1]; male dogs, 4.0 mg/kg/day): 0 | effect on heart function, ECG parameters (heart rate, PR, QRS, QT and QTc intervals) (beagle dogs [2]; beagle dogs, daily iv infusion at ≥ 0.5 mg/kg/day, males and females): did not produce any observable effect on heart function | survival (beagle dogs [2]; dogs, 0.5, 1.5 or 4.0 mg/kg/day 1-h iv infusion, 4 weeks + 4-week recovery): All animals survived until their scheduled termination | minute volume vs vehicle (rats; rats, 15 mg/kg single iv bolus, 30 min post-dose, subsided by 60 min): statistically significant increase | effects on respiratory rate, tidal volume or minute volume (rats; rats, 5, 9 and 15 mg/kg single iv bolus, 4 h post-dose, n=8/group): did not produce any statistically significant adverse effects
